Here are results for two compounds from patent US6703205B2, “Apparatus and methods for correcting for variable velocity in microfluidic systems” (Caliper Technologies Corp., priority 1997, dated 2004).

Molecules are shown by their SMILES.

The target of one assay is HCV protease (Hepatitis C virus genotype 1a, UniProt P27958). Briefly: On-chip continuous flow HCV protease assay with FRET depsipeptide substrate. Type of assay: biochemical. To be noted: 25 mM TRIS/HCL, pH 8.5, 0.1% Triton X-100, 10 mM DTT, 1M NDSB-195. From the text: HCV protease was used in a similar fluorogenic assay to LAR phosphatase; however, the peptide substrate incorporates a fluorescence resonance energy transfer (FRET) label (FIG. 18). […] The product fluorescence is proportional to the amount of cleaved substrate. The height of the product signal is proportional to the rate of enzyme turnover for that substrate concentration. The rate of fluorescence generation can be assessed as the fluorescence signal per mixing time of substrate and enzyme in the reaction channel. That mixing time is determined by the mean residence time of the fluorescent product in the reaction channel as it is electrokinetically pumped from the source of the mixing to the detector. Km was determined from the Michaelis Menton equation.
HCV protease, sequence (P27958 1027-1208): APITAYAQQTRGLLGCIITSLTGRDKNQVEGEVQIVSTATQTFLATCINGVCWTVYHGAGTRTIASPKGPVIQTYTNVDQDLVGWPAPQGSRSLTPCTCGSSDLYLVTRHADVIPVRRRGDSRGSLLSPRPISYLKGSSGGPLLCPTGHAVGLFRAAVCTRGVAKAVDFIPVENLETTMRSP
Due to the chemistry of this FRET quenching reaction, several considerations for accurate measurement of Km on the Labchip™ exist. […]
The chip was operational in that fluid was flowing for more than 12 hours of continuous electrokinetic pumping; however, the inhibition response was reproducible for seven hours. The total reagent volume consumed in the experiment can be calculated from the cross sectional area of the capillary and the total current. […] The average percent inhibition response was calculated for the first three inhibited and uninhibited signals at the start of each hour. […]

Another assay concerns the target LAR (Homo sapiens, UniProt P10586). Briefly: Cuvette / spectrophotometer LAR phosphatase assay with dFMUP. To be noted: same running buffer. Format: biochemical. The protocol: A least squares fit of the three straight lines: no inhibitor, 35 μM and 69 μM peptide, was performed with the constraint that they meet at a common intercept on the y axis, 1/Vmax FIG. 15. […] The kcat is 4.74 μmol/min nmol LAR. The parallel analysis performed on the spectrophotometer in the same running buffer yielded a kcat of 6 μmol/min nmol LAR. […] The same analysis performed in a cuvette experiment with 1 mg/ml BSA in the running buffer gave 167 μM peptide.
In addition to the above kinetic studies, rate as a function of substrate concentration data was collected on three separate chips in order to consider interchip reproducibility for Km analyses. The combined data were used to prepare a double reciprocal plot. […] This is in excellent agreement with cuvette experiments performed on the spectrophotometer where dFMU was detected at 360 nm in a temperature controlled cuvette at 25_C.

LAR, sequence (P10586 30-1907, species assumed): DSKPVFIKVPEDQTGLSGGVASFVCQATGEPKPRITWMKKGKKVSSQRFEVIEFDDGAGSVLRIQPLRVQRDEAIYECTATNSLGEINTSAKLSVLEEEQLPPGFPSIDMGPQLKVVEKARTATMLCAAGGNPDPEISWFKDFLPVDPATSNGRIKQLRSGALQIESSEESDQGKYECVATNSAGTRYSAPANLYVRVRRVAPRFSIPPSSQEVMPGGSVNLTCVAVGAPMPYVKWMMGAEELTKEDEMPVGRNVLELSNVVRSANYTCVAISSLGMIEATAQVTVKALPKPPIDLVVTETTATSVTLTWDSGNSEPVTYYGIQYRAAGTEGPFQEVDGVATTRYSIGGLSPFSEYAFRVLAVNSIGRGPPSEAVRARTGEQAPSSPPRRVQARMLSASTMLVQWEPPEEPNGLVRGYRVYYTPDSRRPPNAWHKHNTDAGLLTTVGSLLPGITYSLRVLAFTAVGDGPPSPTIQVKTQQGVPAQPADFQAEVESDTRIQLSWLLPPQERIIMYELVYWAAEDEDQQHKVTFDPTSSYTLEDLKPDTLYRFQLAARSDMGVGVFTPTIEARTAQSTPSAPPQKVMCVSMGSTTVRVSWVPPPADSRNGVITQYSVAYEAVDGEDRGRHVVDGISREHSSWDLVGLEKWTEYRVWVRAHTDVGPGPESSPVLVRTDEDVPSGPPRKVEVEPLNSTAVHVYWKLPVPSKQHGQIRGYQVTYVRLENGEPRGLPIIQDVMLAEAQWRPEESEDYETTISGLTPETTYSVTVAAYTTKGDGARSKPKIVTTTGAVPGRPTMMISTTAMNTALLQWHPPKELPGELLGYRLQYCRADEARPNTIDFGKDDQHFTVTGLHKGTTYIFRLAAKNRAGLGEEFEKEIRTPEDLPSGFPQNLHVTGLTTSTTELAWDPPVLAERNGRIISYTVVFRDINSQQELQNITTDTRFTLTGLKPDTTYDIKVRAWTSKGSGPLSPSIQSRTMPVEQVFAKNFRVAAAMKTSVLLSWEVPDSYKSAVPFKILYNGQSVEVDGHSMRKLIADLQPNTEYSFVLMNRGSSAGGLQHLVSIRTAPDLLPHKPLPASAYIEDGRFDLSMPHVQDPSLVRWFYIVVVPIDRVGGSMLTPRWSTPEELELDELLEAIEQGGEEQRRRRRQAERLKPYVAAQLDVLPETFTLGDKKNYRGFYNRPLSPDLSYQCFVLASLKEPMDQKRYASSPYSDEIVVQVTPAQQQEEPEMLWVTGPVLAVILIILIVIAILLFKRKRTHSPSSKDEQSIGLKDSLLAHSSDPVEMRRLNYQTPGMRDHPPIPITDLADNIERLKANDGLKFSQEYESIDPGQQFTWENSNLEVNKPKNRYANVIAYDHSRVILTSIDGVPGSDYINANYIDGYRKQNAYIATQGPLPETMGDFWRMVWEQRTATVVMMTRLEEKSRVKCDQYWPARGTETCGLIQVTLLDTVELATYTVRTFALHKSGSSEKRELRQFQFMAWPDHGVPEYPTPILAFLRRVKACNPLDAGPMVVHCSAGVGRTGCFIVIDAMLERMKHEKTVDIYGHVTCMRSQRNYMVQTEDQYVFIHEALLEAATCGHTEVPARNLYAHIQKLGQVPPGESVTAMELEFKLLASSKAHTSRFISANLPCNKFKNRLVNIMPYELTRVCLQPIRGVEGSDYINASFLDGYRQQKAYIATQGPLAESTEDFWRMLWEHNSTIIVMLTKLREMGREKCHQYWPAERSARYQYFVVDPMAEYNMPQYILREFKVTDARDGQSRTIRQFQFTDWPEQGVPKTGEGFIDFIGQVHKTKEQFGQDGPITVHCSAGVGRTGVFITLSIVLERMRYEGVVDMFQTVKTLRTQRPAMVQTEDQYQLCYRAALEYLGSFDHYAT

Consider `C/C=C1\NC(=O)[C@H]2CSSCC/C=C/[C@H](CC(=O)N[C@H](C(C)C)C(=O)N2)OC(=O)[C@H](C(C)C)NC1=O` [Depsipeptide], for which, on HCV protease, the Vmax was 0.086 mM/s and the kcat was determined as 0.03 s⁻¹.

With `Cc1cc(=O)oc2c(F)c(OP(=O)(O)O)c(F)cc12` [dFMUP], the kcat on LAR stood at 6 μmol/min nmolLAR.

In general, Vmax refers to the top rate of the reaction or transport when substrate is in excess.
